{"source": "patent US10464977B2", "about": "(University of Maryland, Baltimore, priority 2016, dated 2019)", "key": {"[1]": {"system": "C. albicans cells (ATCC 90028)", "assay": "Degradation of peptides by whole C. albicans cells, gel densitometry", "type": "in vitro ADME", "conditions": "1×10^9 cells mL^−1, 150 μg mL^−1 peptide, 2 h, 37° C., 100 mM NaPB", "procedure": "For degradation with C. albicans, a single colony of the ATCC 90028 strain (American Type Culture Collection) was used to inoculate YPD. The culture was grown overnight, subcultured, and grown to an optical density of 1-1.2 at OD600. All incubations were done at 30° C. The cells were washed three times in 100 mM NaPB and diluted to 2×10^9 cells mL^−1. Equal volumes of cells and peptides were mixed and incubated for 2 h at 37° C. The cells were removed by centrifugation, and the supernatants were mixed with tricine sample buffer and boiled for 10 min. The samples were then run on gels and analyzed as described above for degradation by the Saps. Three biological replicates were performed.\nAfter observing the effect of residue modifications on the cleavage of Hst-5 by the purified recombinant Saps, whether incubation of the peptides with whole C. albicans cells expressing Saps (rather than Saps produced recombinantly) would yield similar results was evaluated. Hst-5 and the synthetic peptides were incubated with C. albicans cells for 2 h at 37° C. in 100 mM NaPB. The high ionic strength of this buffer prevents internalization of the peptides by C. albicans (4) allowing analysis of degradation of the peptides without the confounding effects of peptide internalization, which would reduce the amount of peptide in the reaction buffer."}, "Sap9": {"molecular_target": "Sap9 (Candida albicans, UniProt Q59SU1)", "sequence (Q59SU1 18-520)": "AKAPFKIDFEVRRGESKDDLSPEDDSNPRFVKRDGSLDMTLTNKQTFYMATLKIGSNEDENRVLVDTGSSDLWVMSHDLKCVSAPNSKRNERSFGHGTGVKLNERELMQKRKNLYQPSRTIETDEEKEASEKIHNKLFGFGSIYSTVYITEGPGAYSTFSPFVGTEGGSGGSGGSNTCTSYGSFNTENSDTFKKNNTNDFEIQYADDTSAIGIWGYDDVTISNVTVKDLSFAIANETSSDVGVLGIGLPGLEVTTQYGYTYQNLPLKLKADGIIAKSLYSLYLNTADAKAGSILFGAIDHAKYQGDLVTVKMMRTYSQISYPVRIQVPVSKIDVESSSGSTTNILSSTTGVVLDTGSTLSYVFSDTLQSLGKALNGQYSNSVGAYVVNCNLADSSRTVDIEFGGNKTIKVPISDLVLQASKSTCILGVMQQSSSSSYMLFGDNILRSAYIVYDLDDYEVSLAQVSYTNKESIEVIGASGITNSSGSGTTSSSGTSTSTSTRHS", "assay": "in vitro", "conditions": "2 h, 37° C.; for degradation by Sap9 (in words): 3.13 μg mL^−1 Sap9, 150 μg mL^−1 peptide; for degradation at higher Sap9 concentration (in words): 6.25 μg mL^−1 Sap9, 150 μg mL^−1 peptide", "procedure": "(§1) Experiments were done in 1 mM NaPB. The mixtures were incubated at 37° C. for 2 h, and NaPB with no Sap was used as a control. After the incubation, the samples were mixed with tricine sample buffer (without Coomassie Blue G-250, except in control samples) containing β-mercaptoethanol and boiled for 5 min at 100° C. to inactivate the proteases. The degraded and non-degraded peptides were separated by gel electrophoresis in 10-20% Tris-tricine gels (Bio-Rad), and the gels were then fixed in a 10% acetic acid/40% methanol/50% water mixture for 30 min. The fixed gels were stained with Bio-Safe Coomassie stain (Bio-Rad) for 1 h and washed with fresh water three times, once overnight and then twice for at least 2 h each time. The gels were imaged on a Chemidoc imager (Bio-Rad), and densitometric analysis was done with Image Lab software (Bio-Rad). […] Three replicates of the assay were done.\n(§2) To measure the antifungal activity of the peptides following degradation by the Saps, the antifungal activity assay was performed as described above, except the peptides were first exposed to Saps. The peptide fragments were prepared by incubating each peptide (150 μg mL^−1) with 6.25 μg mL^−1 Sap9 or 18 μg mL^−1 Sap2 for 2 h at 37° C. The enzymes were then inactivated by heating at 100° C. for 5 min. As controls, each peptide was also incubated with only NaPB buffer. Samples were then stored at −20° C. until use in the antifungal activity assay.\n(§3) The intact peptide was then separated from the degradation products using gel electrophoresis and quantified the level of degradation using densitometric analysis of Coomassie-stained gels.\n(§4) To amplify differences in antifungal activity due to degradation by the Saps, the concentrations of the Saps was increased by at least two-fold compared to the concentrations used for the gel electrophoresis data in FIGS. 1A-1D (to 6.25 μg mL^−1 for Sap9 and 18 μg mL^−1 for Sap2)."}, "Sap2": {"molecular_target": "Sap2 (Candida albicans, UniProt P0DJ06)", "sequence (P0DJ06 57-398)": "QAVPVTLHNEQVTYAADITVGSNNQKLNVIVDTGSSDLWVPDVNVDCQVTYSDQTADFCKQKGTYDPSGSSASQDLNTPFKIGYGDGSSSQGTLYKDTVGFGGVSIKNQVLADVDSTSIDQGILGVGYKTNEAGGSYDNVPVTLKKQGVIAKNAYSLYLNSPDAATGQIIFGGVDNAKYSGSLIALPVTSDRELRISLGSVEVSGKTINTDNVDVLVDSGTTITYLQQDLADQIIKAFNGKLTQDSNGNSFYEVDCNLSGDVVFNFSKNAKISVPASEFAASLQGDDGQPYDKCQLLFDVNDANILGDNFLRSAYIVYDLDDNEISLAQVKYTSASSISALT", "assay": "in vitro", "conditions": "2 h, 37° C.; for degradation by Sap2 (in words): 6.25 μg mL^−1 Sap2, 150 μg mL^−1 peptide", "procedure": "as §1, §2, §3, §4"}}, "note": "Residues, ends and D or L forms follow the SMILES beside them."}
{"smiles": "CC(C)C[C@H](NC(=O)[C@H](C)NC(=O)[C@H](Cc1c[nH]cn1)NC(=O)[C@H](CO)NC(=O)[C@@H](N)CC(=O)O)C(=O)N[C@@H](CCCNC(=N)N)C(=O)N[C@@H](Cc1c[nH]cn1)C(=O)N[C@@H](Cc1c[nH]cn1)C(=O)NCC(=O)N[C@@H](Cc1ccc(O)cc1)C(=O)N[C@@H](CCCCN)C(=O)N[C@@H](CCCNC(=N)N)C(=O)N[C@@H](CCCCN)C(=O)N[C@@H](Cc1ccccc1)C(=O)N[C@@H](Cc1c[nH]cn1)C(=O)N[C@@H](CCC(=O)O)C(=O)N[C@@H](CCCCN)C(=O)N[C@@H](Cc1c[nH]cn1)C(=O)N[C@@H](Cc1c[nH]cn1)C(=O)N[C@@H](CO)C(=O)N[C@@H](Cc1c[nH]cn1)C(=O)N[C@@H](CCCNC(=N)N)C(=O)NCC(=O)N[C@@H](Cc1ccc(O)cc1)C(=O)O", "note": "[Peptide K5L] (H-DSHALRHHGYKRKFHEKHHSHRGY-OH; N-terminus and C-terminus assumed)", "values": [{"measurement": "degradation by C. albicans cells (in words)", "setting": "[1]", "result": "decrease in proteolysis"}, {"measurement": "degradation by Sap9 (in words)", "setting": "Sap9", "result": "greater degradation than their arginine-substituted counterparts or parent Hst-5"}, {"measurement": "degradation at higher Sap9 concentration (in words)", "setting": "Sap9", "result": "not intact"}]}
{"smiles": "CC(C)C[C@H](NC(=O)[C@H](Cc1c[nH]cn1)NC(=O)[C@H](Cc1ccccc1)NC(=O)[C@H](CCCCN)NC(=O)[C@H](CCCNC(=N)N)NC(=O)[C@H](CCCCN)NC(=O)[C@H](Cc1ccc(O)cc1)NC(=O)CNC(=O)[C@H](Cc1c[nH]cn1)NC(=O)[C@H](Cc1c[nH]cn1)NC(=O)[C@H](CCCNC(=N)N)NC(=O)[C@H](CCCCN)NC(=O)[C@H](C)NC(=O)[C@H](Cc1c[nH]cn1)NC(=O)[C@H](CO)NC(=O)[C@@H](N)CC(=O)O)C(=O)N[C@@H](CCCCN)C(=O)N[C@@H](Cc1c[nH]cn1)C(=O)N[C@@H](Cc1c[nH]cn1)C(=O)N[C@@H](CO)C(=O)N[C@@H](Cc1c[nH]cn1)C(=O)N[C@@H](CCCNC(=N)N)C(=O)NCC(=O)N[C@@H](Cc1ccc(O)cc1)C(=O)O", "note": "[Peptide E16L] (H-DSHAKRHHGYKRKFHLKHHSHRGY-OH; N-terminus and C-terminus assumed)", "values": [{"measurement": "degradation by Sap9 (in words)", "setting": "Sap9", "result": "increased compared to Hst-5"}, {"measurement": "degradation by Sap2 (in words)", "setting": "Sap2", "result": "increased compared to Hst-5"}]}
{"smiles": "CC(C)C[C@H](NC(=O)[C@H](Cc1ccc(O)cc1)NC(=O)CNC(=O)[C@H](Cc1c[nH]cn1)NC(=O)[C@H](Cc1c[nH]cn1)NC(=O)[C@H](CCCNC(=N)N)NC(=O)[C@H](CCCCN)NC(=O)[C@H](C)NC(=O)[C@H](Cc1c[nH]cn1)NC(=O)[C@H](CO)NC(=O)[C@@H](N)CC(=O)O)C(=O)N[C@@H](CCCNC(=N)N)C(=O)N[C@@H](CCCCN)C(=O)N[C@@H](Cc1ccccc1)C(=O)N[C@@H](Cc1c[nH]cn1)C(=O)N[C@@H](CCC(=O)O)C(=O)N[C@@H](CCCCN)C(=O)N[C@@H](Cc1c[nH]cn1)C(=O)N[C@@H](Cc1c[nH]cn1)C(=O)N[C@@H](CO)C(=O)N[C@@H](Cc1c[nH]cn1)C(=O)N[C@@H](CCCNC(=N)N)C(=O)NCC(=O)N[C@@H](Cc1ccc(O)cc1)C(=O)O", "note": "[Peptide K11L] (H-DSHAKRHHGYLRKFHEKHHSHRGY-OH; N-terminus and C-terminus assumed)", "values": [{"measurement": "degradation by Sap9 (in words)", "setting": "Sap9", "result": "greater degradation than their arginine-substituted counterparts or parent Hst-5"}, {"measurement": "degradation at higher Sap9 concentration (in words)", "setting": "Sap9", "result": "not intact"}]}
{"smiles": "C[C@H](NC(=O)[C@H](Cc1c[nH]cn1)NC(=O)[C@H](CO)NC(=O)[C@@H](N)CC(=O)O)C(=O)N[C@@H](CCCNC(=N)N)C(=O)N[C@@H](CCCNC(=N)N)C(=O)N[C@@H](Cc1c[nH]cn1)C(=O)N[C@@H](Cc1c[nH]cn1)C(=O)NCC(=O)N[C@@H](Cc1ccc(O)cc1)C(=O)N[C@@H](CCCCN)C(=O)N[C@@H](CCCNC(=N)N)C(=O)N[C@@H](CCCCN)C(=O)N[C@@H](Cc1ccccc1)C(=O)N[C@@H](Cc1c[nH]cn1)C(=O)N[C@@H](CCC(=O)O)C(=O)N[C@@H](CCCCN)C(=O)N[C@@H](Cc1c[nH]cn1)C(=O)N[C@@H](Cc1c[nH]cn1)C(=O)N[C@@H](CO)C(=O)N[C@@H](Cc1c[nH]cn1)C(=O)N[C@@H](CCCNC(=N)N)C(=O)NCC(=O)N[C@@H](Cc1ccc(O)cc1)C(=O)O", "note": "[Peptide K5R] (H-DSHARRHHGYKRKFHEKHHSHRGY-OH; N-terminus and C-terminus assumed)", "values": [{"measurement": "degradation by C. albicans cells (in words)", "setting": "[1]", "result": "no significant effect"}, {"measurement": "intact peptide at higher Sap2 concentration (in words)", "setting": "Sap2; 18 μg mL^−1 Sap2, 150 μg mL^−1 peptide", "result": "no statistically significant amount of these peptides remained"}]}
{"smiles": "C[C@H](NC(=O)[C@H](Cc1c[nH]cn1)NC(=O)[C@H](CO)NC(=O)[C@@H](N)CC(=O)O)C(=O)N[C@@H](CCCCN)C(=O)N[C@@H](CCCNC(=N)N)C(=O)N[C@@H](Cc1c[nH]cn1)C(=O)N[C@@H](Cc1c[nH]cn1)C(=O)NCC(=O)N[C@@H](Cc1ccc(O)cc1)C(=O)N[C@@H](CCCNC(=N)N)C(=O)N[C@@H](CCCNC(=N)N)C(=O)N[C@@H](CCCCN)C(=O)N[C@@H](Cc1ccccc1)C(=O)N[C@@H](Cc1c[nH]cn1)C(=O)N[C@@H](CCC(=O)O)C(=O)N[C@@H](CCCCN)C(=O)N[C@@H](Cc1c[nH]cn1)C(=O)N[C@@H](Cc1c[nH]cn1)C(=O)N[C@@H](CO)C(=O)N[C@@H](Cc1c[nH]cn1)C(=O)N[C@@H](CCCNC(=N)N)C(=O)NCC(=O)N[C@@H](Cc1ccc(O)cc1)C(=O)O", "note": "[Peptide K11R] (H-DSHAKRHHGYRRKFHEKHHSHRGY-OH; N-terminus and C-terminus assumed)", "values": [{"measurement": "degradation by C. albicans cells (in words)", "setting": "[1]", "result": "did not show a significant difference in degradation of the peptide compared to Hst-5"}, {"measurement": "degradation by Sap9 (in words)", "setting": "Sap9", "result": "did not show a significant increase in resistance to the protease"}, {"measurement": "degradation at higher Sap9 concentration (in words)", "setting": "Sap9", "result": "significant reduction in degradation compared to Hst-5"}]}
{"smiles": "C[C@H](NC(=O)[C@H](Cc1c[nH]cn1)NC(=O)[C@H](CO)NC(=O)[C@@H](N)CC(=O)O)C(=O)N[C@@H](CCCCN)C(=O)N[C@@H](CCCNC(=N)N)C(=O)N[C@@H](Cc1c[nH]cn1)C(=O)N[C@@H](Cc1c[nH]cn1)C(=O)NCC(=O)N[C@@H](Cc1ccc(O)cc1)C(=O)N[C@@H](CCCNC(=N)N)C(=O)N[C@@H](CCCNC(=N)N)C(=O)N[C@@H](CCCCN)C(=O)N[C@@H](Cc1ccccc1)C(=O)N[C@@H](Cc1c[nH]cn1)C(=O)N[C@@H](CCC(=O)O)C(=O)N[C@@H](CCCNC(=N)N)C(=O)N[C@@H](Cc1c[nH]cn1)C(=O)N[C@@H](Cc1c[nH]cn1)C(=O)N[C@@H](CO)C(=O)N[C@@H](Cc1c[nH]cn1)C(=O)N[C@@H](CCCNC(=N)N)C(=O)NCC(=O)N[C@@H](Cc1ccc(O)cc1)C(=O)O", "note": "[Peptide K11R-K17R] (H-DSHAKRHHGYRRKFHERHHSHRGY-OH; N-terminus and C-terminus assumed)", "values": [{"measurement": "degradation by Sap9 (in words)", "setting": "Sap9", "result": "no observable degradation"}, {"measurement": "degradation by Sap2 (in words)", "setting": "Sap2", "result": "no observable degradation"}]}
